{"source": "patent US10730857B2", "about": "“Benzocyanine compounds” (Pierce Biotechnology, Inc., priority 2011, dated 2020)", "key": {"[1]": {"assay": "Absorbance/emission spectral properties and fluorescence intensity of the dyes", "format": "physicochemical", "description": "Emission/excitation profiles for inventive and commercial compounds was determined by reconstituting the compounds in DMF at 10 mg/ml and then diluting in PBS buffer pH 7.2 to 10 μg/ml."}, "[2]": {"test_system": "rabbit IgG immunoglobulin", "assay": "Plate functional assay of dye-GAR conjugates", "format": "binding", "description": "Performance of the dye-GAM conjugates, dye-GAR conjugates, and dye-SA conjugates was evaluated in a functional assay. Wells of a 96 white opaque plate or black clear-bottom plate were coated with target proteins mouse IgG immunoglobulin, rabbit IgG immunoglobulin, or biotinylated bovine serum albumin (BBSA). One hundred μl mouse or rabbit IgG, or BBSA at a concentration of 10 μg/ml was applied to the corresponding wells in columns 1 and 2. The target proteins were serially diluted 1:1 from the wells in columns 2 to 11 using 100 μl PBS. One hundred μl of the samples from the wells in column 11 were discarded. One hundred μl PBS was added to the wells in column 12. The plates were incubated overnight at 4° C. and then blocked 2×200 μl with Thermo Scientific SuperBlock® Blocking Buffer. The coated plates were washed 2×200 μl with PBS-Tween and 1×200 μl with PBS. Based on the calculated concentrations, conjugates were diluted 1:250 in PBS, added to the corresponding plates (100 μl/well) and then incubated for one hour in the dark. The plates were washed with 2×200 μl with PBS-Tween and 1×200 μl with PBS and filled with PBS buffer (100 μl/well) prior to scanning the white opaque plates on Tecan Safire using 679 nmexcitation/702 nmemission or scanning the black clear-bottom plates on LiCor Odyssey at 700 channel, to detect fluorescence intensity."}, "[3]": {"test_system": "lamin A in U20S cells", "assay": "Immunofluorescence detection of lamin A in U20S cells (FIG. 20A-C and repeat)", "format": "cell-based", "description": "In the indicated experiments, the inventive compounds and commercial dye were evaluated for immunofluorescence in a cell based assay using the following protocol. Frozen U20S cell plates which were stored at −80° C. were thawed for 45 minutes at 50° C. Storage buffer (PBS) was removed and the cells were permeabilized for 15 minutes with 0.1% Triton-X100 in 1×PBS buffer (100 μl/well). The cell plate was blocked for 60 minutes in 2% BSA/PBS-0.1% Triton-X100. Primary antibody, either rat anti-Grp94 (5 μg/ml), mouse anti-lamin A (10 μg/ml), or rabbit anti-lamin B1 (10 μg/ml), diluted in 2% BSA/PBS-0.1% Triton-X100 was added to the plate and incubated for 1 hour at room temperature. Control wells contained only 2% BSA/PBS-0.1% Triton-X100 blocker. After incubation, the antibody solution was removed from the plate and the plate was washed three times with 100 μl/well of PBS-0.5% Tween-20 and one time with 100 μl/well PBS. GARat, GAM, or GAR secondary antibodies labeled with various molar excess of the inventive or commercial compound were diluted to 4 μg/ml in PBS and incubated for 1 hour at room temperature. The plates were washed three times with 100 μl/well of PBST and once with 100 μl/well PBS, and Hoechst (diluted to 0.1 μg/ml in PBS) was added to each well (100 μl/well). The plates were scanned on ArrayScan Plate Reader or ToxInsight Instrument."}, "[4]": {"assay": "In vivo imaging with dye-labeled anti-CEA antibody", "set-up": "species or system nu/nu mice", "conditions": "dye conjugated to mouse anti-CEA antibody; i.v.; predicted results", "description": "The inventive compounds are used for in vivo imaging as described in J. Gastrointest Surg (2008) 12:1938-1950. Briefly, human pancreatic cell lines are maintained in media supplemented with penicillin/streptomycin at 37° C. with 5% CO2. Mouse anti-CEA antibody and Control Mouse IgG (in PBS with 0.20% sodium azide) are conjugated to V08-15173. The dye is reconstituted at 10 mg/ml in DMF and then added to the antibody at a 10 molar excess. The reaction is carried out for one hour at room temperature. The samples are then dialyzed against 3×2 L of PBS. The cell lines are plated in 96-well plates at 5×10^4 cells per well. After 48 hours culture in appropriate media, the cells are incubated with 1 μg of V08-15173 labeled anti-CEA antibody or V08-15173-labeled control mouse IgG for four hours at 37° C. The cells are then washed three times with PBS and then imaged with an inverted Nikon De-485 microscope and Spot camera RD.\nSurgical procedures and intravital imaging are performed with the animals anesthesized by intramuscular injection of 0.02 ml of 50% ketamine, 38% xylazine and 12 acepromazine maleate. Human pancreatic and colorectal cancer cell lines are harvested by trypsinization and washed twice with serum free medium […]. Cells (1×10^6 in 100 μl of serum-free media) are injected subcutaneously within 30 minutes of harvesting over the right flank in female nu/nu mice between 4-6 weeks of age. Subcutaneous tumors are allowed to grow for 7-14 days until they reached diameter of 1-2 mm prior to the delivery of conjugated antibody. For ASPC-1 implants, the cells are harvested by trypsinization and washed 3× in serum-free media. […]. The cells are resuspended in serum-free media at 5×10^6/ml. A volume of 200 μl of the cell suspension is then injected directly into the peritoneal cavity within 30 minutes of harvesting.\nFor antibody delivery, one to two weeks after subcutaneous, orthotopic, or intraperitoneal tumor implantation, animals are given intravenous (i.v.) injection of either conjugated anti-CEA or conjugated control IgG antibody diluted in PBS to a final volume of 100 μl. All i.v. injections are done via the tail vein. For the dose-response experiment, the antibody dose is 75 μg. For the in vivo time course, the animals are anesthesized and imaged at 30 min, 1, 2, 6, 24 hours and 8 and 15 days after systemic antibody delivery.\nThe inventive compounds are used for in vivo imaging as described in J. Gastrointest Surg (2008) 12:1938-1950. Briefly, human pancreatic cell lines are maintained in media supplemented with penicillin/streptomycin at 37° C. with 5% CO2. Mouse anti-CEA antibody and Control Mouse IgG (in PBS with 0.20% sodium azide) are conjugated to 779 Compound 1. […]"}, "[5]": {"test_system": "lamin A in U20S cells", "assay": "Immunofluorescence, mouse anti-lamin A, U20S cells (FIG. 16)", "format": "cell-based", "conditions": "FIG. 16", "description": "The inventive compounds and commercial dye were evaluated for immunofluorescence in a second cell based assay using the following protocol. Frozen U20S cell plates stored at −20° C. were placed overnight at 4° C. Storage buffer (PBS) was removed and the cells were permeabilized for 15 min (100 μl/well) with 0.1% Triton-X100 in 1×PBS buffer. Plates were blocked for 30 min in 2% BSA in 1×PBS-0.1% Trion-X100. Primary antibodies diluted in 2% BSA in 1×PBS-0.1% Trion-X100 were added to the plates (column 1-11; column 12 included only blocker) and incubated five hours at room temperature. Mouse anti-lamin A was added at 2 μg/ml and rabbit anti-lamin B1 was added at 4 μg/ml. After incubation, the antibody solution was removed from the plates and the plates were washed PBS-0.5% Tween-20 (2×100 μl/well). Next, GAM and GAR secondary antibodies labeled with DyLight 680-NHS, DyLight 680B-NHS, 679 Compound 1-NHS, and Cy5.5 Mono Ester were diluted to 4 μg/ml in PBS and incubated with the cells for one hour at room temperature. GAM and GAR conjugated to DyLight 680-NHS, DyLight 680B-NHS, 679 Compound 1-NHS, and Company B Compound at 10× molar excess were diluted to 4 μg/ml in PBS and then serially diluted 1:1 in the plate to the following concentrations: 2 μg/ml, 1 μg/ml, 0.5 μg/ml, 0.25 μg/ml, 0.125 μg/ml and/or 0.0625 μg/ml. The plates were washed 3× with 100 μl/well PBS, and Hoechst stain diluted to 0.1 μg/ml in PBS was added to each well (100 μl/well). The plates were scanned on ArrayScan Plate Reader for imaging and quantitation."}, "[6]": {"conditions": "first property table of Example 6, NHS/mono ester forms"}, "[7]": {"conditions": "second property table of Example 6, NHS ester forms"}}, "data": [{"compound": "COCC[N+]1=C(/C=C/C=C/C=C2/N(CCCCCC(=O)ON3C(=O)CCC3=O)c3ccc4c(S(=O)(=O)[O-])cc(S(=O)(=O)O)cc4c3C2(C)C)C(C)(CCCS(=O)(=O)O)c2c1ccc1c(S(=O)(=O)O)cc(S(=O)(=O)O)cc21", "note": "(centres unmarked) [679 Compound 1-NHS]", "values": [{"measurement": "Em", "setting": "[1]; [6]", "result": 698, "unit": "nm"}, {"measurement": "Ex", "setting": "[1]; [6]", "result": 679, "unit": "nm"}, {"measurement": "Em", "setting": "[1]; [7]", "result": 698, "unit": "nm"}, {"measurement": "Ex", "setting": "[1]; [7]", "result": 679, "unit": "nm"}]}, {"compound": "COCC[N+]1=C(/C=C/C=C/C=C2/N(CCCCCC(=O)O)c3ccc4c(S(=O)(=O)[O-])cc(S(=O)(=O)[O-])cc4c3C2(C)C)C(C)(CCCS(=O)(=O)[O-])c2c1ccc1c(S(=O)(=O)[O-])cc(S(=O)(=O)[O-])cc21.[Na+].[Na+].[Na+].[Na+]", "note": "(centres unmarked) [679 Compound 1/1, 2-{(1E,3E)-5-[3-(5-Carboxypentyl)-1,1-dimethyl-6,8-disulfo-1,3-dihydro-benzo[e]indol-(2E)-ylidene]-penta-1,3-dienyl}-3-(2-methoxy-ethyl)-1-methyl-6,8-disulfo-1-(3-sulfopropyl)-1H-benzo[e]indolium]", "values": [{"measurement": "quenching at 1000 ng/well at 25× (in words)", "setting": "[2]; FIG. 14 summary Raw Fluorescence Intensity", "result": "apparent quenching"}, {"measurement": "Raw Fluorescence Intensity behaviour at 25× molar excess (in words)", "setting": "[2]; LiCOR Odyssey, FIG. 12", "result": "saturating at 25×"}, {"measurement": "Mean Total Intensity, Average, 2.5 X", "setting": "[3]; GAM conjugate 4 μg/ml, 2.5 X molar excess", "result": 29229}, {"measurement": "Mean Total Intensity, Average, 5.0 X", "setting": "[3]; GAM conjugate 4 μg/ml, 5.0 X molar excess", "result": 49279}, {"measurement": "Mean Total Intensity, Average, 7.5 X", "setting": "[3]; GAM conjugate 4 μg/ml, 7.5 X molar excess", "result": 28782}, {"measurement": "Mean Total Intensity, Average, 10 X", "setting": "[3]; GAM conjugate 4 μg/ml, 10 X molar excess", "result": 30098}, {"measurement": "Mean Total Intensity, Average, 15 X", "setting": "[3]; GAM conjugate 4 μg/ml, 15 X molar excess", "result": 48071}, {"measurement": "Mean Total Intensity, Negative control, 2.5 X", "setting": "[3]; repeat experiment, no primary antibody, 2.5 X", "result": 8711}, {"measurement": "Mean Total Intensity, Negative control, 5 X", "setting": "[3]; repeat experiment, no primary antibody, 5 X", "result": 8674}, {"measurement": "Mean Total Intensity, Negative control, 10 X", "setting": "[3]; repeat experiment, no primary antibody, 10 X", "result": 20481}, {"measurement": "Mean Total Intensity, Negative control, 15 X", "setting": "[3]; repeat experiment, no primary antibody, 15 X", "result": 16277}]}, {"compound": "2-{(1E,3E)-5-[3-(5-Carboxypentyl)-1,1-dimethyl-6,8-disulfo-1,3-dihydro-benzo[e]indol-(2E)-ylidene]-penta-1,3-dienyl}-3-(2-methoxy-ethyl)-1-methyl-6,8-disulfo-1-(3-sulfopropyl)-1H-benzo[e]indolium [679 Compound 1/1 (isomer 2)]", "values": [{"measurement": "UV-vis λmax", "setting": "[1]; PBS", "result": 679, "unit": "nm"}, {"measurement": "λem", "setting": "[1]; PBS", "result": 698, "unit": "nm"}]}, {"compound": "COCC[N+]1=C(/C=C/C=C/C=C/C=C2/N(CCCCCC(=O)O)c3ccc4c(S(=O)(=O)[O-])cc(S(=O)(=O)O)cc4c3C2(C)C)C(C)(CCCS(=O)(=O)O)c2c1ccc1c(S(=O)(=O)O)cc(S(=O)(=O)O)cc21", "note": "(centres unmarked) [779 Compound 1, 6-((E)-2-((2E,4E,6E)-7-(3-(2-methoxyethyl)-1-methyl-6,8-disulfonato-1-(3-sulfonatopropyl)-1H-benzo[e]indol-3-ium-2-yl)hepta-2,4,6-trien-1-ylidene)-1,1-dimethyl-6,8-disulfonato-1H-benzo[e]indol-3(2H)-yl)hexanoate]", "values": [{"measurement": "Ex vivo analysis of the vital organs", "setting": "[4]", "result": "presence of dye predominantly in the liver with some signal detected in the spleen intestines and lungs"}, {"measurement": "post-experiment surgical exposure: accumulation of dye", "setting": "[4]", "result": "accumulation of dye in the liver, bladder, and a region of inflammation in the subcutaneous tissue"}]}, {"compound": "COCC[N+]1=C(/C=C/C=C/C=C2/N(CCCCCC(=O)O)c3ccc4c(S(=O)(=O)[O-])cc(S(=O)(=O)[O-])cc4c3C2(C)C)C(C)(CCCS(=O)(=O)[O-])c2c1ccc1c(S(=O)(=O)[O-])cc(S(=O)(=O)[O-])cc21.[Na+].[Na+].[Na+].[Na+]", "note": "(single isomer, unassigned; isomer 1) [679 Compound 1/1 (isomer 1), 2-{(1E,3E)-5-[3-(5-Carboxypentyl)-1,1-dimethyl-6,8-disulfo-1,3-dihydro-benzo[e]indol-(2E)-ylidene]-penta-1,3-dienyl}-3-(2-methoxy-ethyl)-1-methyl-6,8-disulfo-1-(3-sulfopropyl)-1H-benzo[e]indolium]", "values": [{"measurement": "UV-vis λmax", "setting": "[1]; PBS", "result": 679, "unit": "nm"}]}, {"compound": "Cy5.5 [reference compound]", "values": [{"measurement": "Mean Total Intensity 2X", "setting": "[5]; GAM conjugated at 2X molar excess", "result": 211945}, {"measurement": "Mean Total Intensity 3X", "setting": "[5]; GAM conjugated at 3X molar excess", "result": 342208}, {"measurement": "Mean Total Intensity 4X", "setting": "[5]; GAM conjugated at 4X molar excess", "result": 451111}]}]}
